Test results as given in article PMC6099957, “Mouse β-Defensin 3, A Defensin Inhibitor of Both Its Endogenous and Exogenous Potassium Channels” (Molecules : A Journal of Synthetic Chemistry and Natural …, 2018).
Read-outs that look alike come from different tables or passages of the source. No end group written: not given here.

Assays:
mouse Kv1.1 channel = experiment: Whole-cell patch clamp, mouse Kv1.1 channel in HEK293 cells; format: cell-based; details: 1 μM rmBD3, mean ± SE, at least three times, SEM
Procedure: (§1) Human embryonic kidney 293 (HEK293) cells were cultured Dulbecco’s modified Eagle medium (Thermo Fisher Scientific, Pittsburgh, PA. USA) with 10% heat-inactivated fetal calf serum supplemented with penicillin (100 units/mL) and streptomycin (100 μg/mL) in a humidified 5% CO2 incubator at 37 °C. Plasmids were transfected into HEK293 cells using the TurboFect in vitro Transfection Reagent (Thermo Fisher Scientific, Pittsburgh, PA, USA). Potassium currents were recorded after transfection for 1 to 3 days and positive cells were selected based on the presence of GFP fluorescence.
(§2) Electrophysiological experiments were carried out at room temperature using the whole-cell recording mode by EPC10 patch clamp amplifier (Heka Elektronik, Lambrecht, Germany), which was controlled by Patchmaster software version 2 × 65 (Heka Elektronik, Holliston, MA, USA). For all the channels, HEK293 cells were bathed with mammalian Ringer’s solution contained 5 mM KCl, 140 mM NaCl, 10 mM HEPES, 2 mM CaCl2, 1 mM MgCl2 and 10 mM D-glucose (pH adjusted to 7.4 with NaOH). When rmBD3 was applied, 0.01% BSA was added to the Ringer’s solution. A multichannel microperfusion system MPS-2 (INBIO Inc., Wuhan, China) was used to exchange the external recording bath solution. […] The currents through Kv channels and KCNQ1/KCNE1 channel were recorded according to previously published references. […]

Kv1.6-Y429A channel = experiment: Patch clamp, mouse Kv1.6 pore region mutant Y429A; format: cell-based; details: 1 μM rmBD3; HEK293 cells; mean ± SE, at least three times; SEM
Description: (§3) The pRc/CMV-hKv1.3 vector was kindly provided by Prof. Stephan Grissmer (University of Ulm, Ulm, Germany) and Prof. Olaf Pongs (Zentrum für Molekulare Neurobiologie der University Hamburg, Hamburg, Germany). The cDNAs encoding human Kv1.1, Kv1.2, hERG and KCNQ1/KCNE1 channels were subcloned into the vector pIRES2-EGFP (TaKaRa Clontech, Mountain View, CA, USA) for coexpression with the green fluorescent protein (GFP), and the other channels were subcloned into vector pcDNA 3.1(+) (TaKaRa Clontech, Mountain View, CA, USA) for coexpression with GFP. The constructs were verified by DNA sequencing (Sangon Biotech, Shanghai, China). The mutants Asp400, Asp401, Val402, Asp403, Asp411, Met428 and Tyr429 on the pore region of wild type mouse Kv1.6 channel plasmids were mutated into Ala with QuikChange Site-Directed Mutagenesis Kit (Agilent Stratagene, Santa Clara, CA, USA). All the mutants were verified by DNA sequencing before being used (Sangon Biotech, China).
(§4) Human embryonic kidney 293 (HEK293) cells were cultured Dulbecco’s modified Eagle medium (Thermo Fisher Scientific, Pittsburgh, PA. USA) with 10% heat-inactivated fetal calf serum supplemented with penicillin (100 units/mL) and streptomycin (100 μg/mL) in a humidified 5% CO2 incubator at 37 °C. […] Potassium currents were recorded after transfection for 1 to 3 days and positive cells were selected based on the presence of GFP fluorescence. […]

human Kv1.1 channel = experiment: Whole-cell patch clamp, human Kv1.1 channel in HEK293 cells; format: cell-based; details: 1 μM rmBD3, mean ± SE, at least three times, SEM
Description: as §3, §4

human Kv1.6 channel = experiment: Whole-cell patch clamp, human Kv1.6 channel in HEK293 cells; format: cell-based; details: 1 μM rmBD3, mean ± SE, at least three times, SEM
Procedure: as §1, §2

Kv1.6-D411A channel = experiment: Patch clamp, mouse Kv1.6 pore region mutant D411A; format: cell-based; details: 1 μM rmBD3; HEK293 cells; mean ± SE, at least three times; SEM
Description: as §3, §4

hERG channel = format: cell-based, human; details: 1 μM rmBD3; HEK293 cells; mean ± SE, at least three times; SEM
Description: as §3, §4

human Kv3.2 channel = experiment: Whole-cell patch clamp, human Kv3.2 channel in HEK293 cells; format: cell-based; details: 1 μM rmBD3, mean ± SE, at least three times, SEM
Procedure: as §1, §2

human Kv1.3 channel = experiment: Whole-cell patch clamp, human Kv1.3 channel in HEK293 cells; format: cell-based; details: 1 μM rmBD3, mean ± SE, at least three times, SEM
Description: as §3, §4

human KCNQ1 channel = format: cell-based; details: 1 μM rmBD3; HEK293 cells; mean ± SE, at least three times; SEM
Procedure: as §1, §2

Kv1.6-V402A channel = experiment: Patch clamp, mouse Kv1.6 pore region mutant V402A; format: cell-based; details: 1 μM rmBD3; HEK293 cells; mean ± SE, at least three times; SEM
Description: as §3, §4

mouse Kv1.3 channel = experiment: Whole-cell patch clamp, mouse Kv1.3 channel in HEK293 cells; format: cell-based; details: 1 μM rmBD3, mean ± SE, at least three times, SEM
Procedure: as §1, §2

mouse Kv1.6 channel = experiment: Whole-cell patch clamp, mouse Kv1.6 channel in HEK293 cells; format: cell-based; details: mean ± SE, SEM; for inhibition of mouse Kv1.6 channel currents: at least three times
Procedure: as §1
(§5) Electrophysiological experiments were carried out at room temperature using the whole-cell recording mode by EPC10 patch clamp amplifier (Heka Elektronik, Lambrecht, Germany), which was controlled by Patchmaster software version 2 × 65 (Heka Elektronik, Holliston, MA, USA). For all the channels, HEK293 cells were bathed with mammalian Ringer’s solution contained 5 mM KCl, 140 mM NaCl, 10 mM HEPES, 2 mM CaCl2, 1 mM MgCl2 and 10 mM D-glucose (pH adjusted to 7.4 with NaOH). When rmBD3 was applied, 0.01% BSA was added to the Ringer’s solution. A multichannel microperfusion system MPS-2 (INBIO Inc., Wuhan, China) was used to exchange the external recording bath solution. The internal pipette solution contains 140 mM KCl, 1 mM MgCl2, 1 mM EGTA, 1 mM Na2ATP and 5 mM HEPES (pH adjusted to 7.4 with NaOH). All channel currents were elicited by depolarizing voltage steps of 200 ms from the holding potential −80 mV to +50 mV. Currents were typically digitized at 20 kHz and filtered at 2.9 kHz (Bessel). Electrode resistances were 3.0–5.0 MΩ, and the series resistance was usually compensated by 85%. The currents through Kv channels and KCNQ1/KCNE1 channel were recorded according to previously published references.
(§6) The IC50 values were obtained by fitting a modified Hill equation to the data with the formula: IrmBD3/Icontrol = 1/(1 + [rmBD3]/IC50), where [rmBD3] is the concentration of rmBD3, IrmBD3 and Icontrol are the peak currents in the presence and absence of rmBD3 at four different concentrations. The conductance of mouse Kv1.6 channel was calculated by the formula: G = Ipeak/(V − EKv1.6), where Ipeak is the peak current, EKv1.6 is the reversal potential of the Kv1.6 channel. The conductance-voltage (G-V) curves were generated by the measured peak currents and fitted with a V50-V equation using the formula: G/Gmax = 1/(1 + exp [(V − V50)/k]), where G is the conductance of the channels, Gmax is the maximal channel conductance, V is the membrane voltage, V50 is the voltage of half-maximal activation, and k is the slope factor. The data were presented as the means ± SE of at least three times repeated experiments. Sigmaplot 12.5 and GraphPad Prism 5 software were used for analysis.

Kv1.6-D400A channel = experiment: Patch clamp, mouse Kv1.6 pore region mutant D400A; format: cell-based; details: 1 μM rmBD3; HEK293 cells; mean ± SE, at least three times; SEM
Description: as §3, §4

Kv1.6-D403A channel = experiment: Patch clamp, mouse Kv1.6 pore region mutant D403A; format: cell-based; details: 1 μM rmBD3; HEK293 cells; mean ± SE, at least three times; SEM
Description: as §3, §4

Kv1.6-M428A channel = experiment: Patch clamp, mouse Kv1.6 pore region mutant M428A; format: cell-based; details: 1 μM rmBD3; HEK293 cells; mean ± SE, at least three times; SEM
Description: as §3, §4

Kv1.6-D401A channel = experiment: Patch clamp, mouse Kv1.6 pore region mutant D401A; format: cell-based; details: 1 μM rmBD3; HEK293 cells; mean ± SE, at least three times; SEM
Description: as §3, §4

human Kv1.2 channel = experiment: Whole-cell patch clamp, human Kv1.2 channel in HEK293 cells; format: cell-based; details: 1 μM rmBD3, mean ± SE, at least three times, SEM
Description: as §3, §4

[1] = tested on: human KCNQ1/KCNE1 channel; format: cell-based; details: HEK293 cells, mean ± SE, SEM; for inhibition of human KCNQ1/KCNE1 channel currents: at least three times
Description: as §3, §1
as §5, with “Electrode resistances were 3.0–5.0 MΩ, and the series resistance was usually compensated by 85%.” left out
as §6, with “The data were presented as the means ± SE of at least three times repeated experiments. Sigmaplot 12.5 and GraphPad Prism 5 software were used for analysis.” left out

mouse Kv1.2 channel = experiment: Whole-cell patch clamp, mouse Kv1.2 channel in HEK293 cells; format: cell-based; details: 1 μM rmBD3, mean ± SE, at least three times, SEM
Procedure: as §1, §2

Kv1.3 = details: read-out: IC50 as Kv1.3 inhibitor; cited from earlier work
Description: Here, the Kv1.3 channel-sensitive hBD2 was used as the molecular template to search potential mouse β-defensin from the biological databases. […] Besides the sequence similarity, the distribution of six cysteine amino acid residues was also identical. In order to better understand the structural feature of mBD3, its structure was modeled by the tem ...

Substance: mouse β-defensin 3 (KKINNPVSCLRKGGRCWNRCIGNTRQIGSCGVPFLKCCKRK; ends and bridges not checked; cysteine pairing not given here; UniProt Q9WTL0 23-63, looked up) [rmBD3, Recombinant mouse β-defensin 3 expressed in E. coli, cleaved from His-tag fusion by Enterokinase, HPLC purified]
- inhibition of mouse Kv1.1 potassium currents (mouse Kv1.1 channel): 19.0 ± 2.2%
- inhibition of mutant Kv1.6-Y429A channel (Kv1.6-Y429A channel): 36.7 ± 2.0%
- inhibition of human Kv1.1 potassium currents (human Kv1.1 channel): 8.8 ± 3.0%
- inhibition of human Kv1.6 potassium currents (human Kv1.6 channel): 31.2 ± 3.6%
- inhibition of mutant Kv1.6-D411A channel (Kv1.6-D411A channel): 43.2 ± 3.5%
- inhibition of hERG potassium currents (hERG channel): 14.7 ± 3.9%
- inhibition of human Kv3.2 potassium currents (human Kv3.2 channel): 11.6 ± 1.3%
- inhibition of human Kv1.3 potassium currents (human Kv1.3 channel): 14.6 ± 0.9%
- inhibition of human KCNQ1 channel currents (human KCNQ1 channel): 26.1 ± 4.8%
- inhibition of mutant Kv1.6-V402A channel (Kv1.6-V402A channel): 21.8 ± 4.5%
- inhibition of mouse Kv1.3 potassium currents (mouse Kv1.3 channel): 14.0 ± 3.7%
- inhibition of mouse Kv1.6 channel currents (mouse Kv1.6 channel; 1 nM rmBD3, HEK293 cells): 18.1 ± 2.4%
- inhibition of mouse Kv1.6 channel currents (mouse Kv1.6 channel; 10 nM rmBD3, HEK293 cells): 26.4 ± 1.8%
- inhibition of mouse Kv1.6 channel currents (mouse Kv1.6 channel; 1 μM rmBD3, HEK293 cells, whole-cell patch clamp): 56.1 ± 4.2%
- inhibition of mouse Kv1.6 channel currents (mouse Kv1.6 channel; 10 μM rmBD3, HEK293 cells): 73.1 ± 2.2%
- IC50 (mouse Kv1.6 channel; Hill equation fitting, four concentrations, HEK293 cells, read-out: IC50, mouse Kv1.6 channel currents): 600 ± 400 nM
- k (slope factor) of activation G-V curve of Kv1.6 channel in the presence of rmBD3 (mouse Kv1.6 channel; after treatment with 1 μM rmBD3 (control 6.8 ± 0.6), Boltzmann fitting): 6.5 ± 0.4
- V50 of activation G-V curve of Kv1.6 channel in the presence of rmBD3 (mouse Kv1.6 channel; after treatment with 1 μM rmBD3 (control −23.8 ± 0.7 mV), Boltzmann fitting): −18.8 ± 0.5 mV
- inhibition of mutant Kv1.6-D400A channel (Kv1.6-D400A channel): 54.9 ± 1.9%
- inhibition of mutant Kv1.6-D403A channel (Kv1.6-D403A channel): 35.6 ± 1.0%
- inhibition of mutant Kv1.6-M428A channel (Kv1.6-M428A channel): 39.3 ± 1.8%
- inhibition of mutant Kv1.6-D401A channel (Kv1.6-D401A channel): 20.7 ± 4.5%
- inhibition of human Kv1.2 potassium currents (human Kv1.2 channel): 9.3 ± 0.8%
- inhibition of human KCNQ1/KCNE1 channel currents ([1]; 10 nM rmBD3): 21.8 ± 3.6%
- inhibition of human KCNQ1/KCNE1 channel currents ([1]; 100 nM rmBD3): 32.4 ± 1.8%
- inhibition of human KCNQ1/KCNE1 channel currents ([1]; 1 μM rmBD3): 46.3 ± 4.2%
- inhibition of human KCNQ1/KCNE1 channel currents ([1]; 10 μM rmBD3): 68.8 ± 3.8%
- IC50 ([1]; Hill equation fitting, four concentrations, read-out: IC50, human KCNQ1/KCNE1 channel currents): 1200 ± 800 nM
- inhibition of mouse Kv1.2 potassium currents (mouse Kv1.2 channel): 4.9 ± 0.6%

Substance: hBD1: human β-defensin, Kv1.3 channel blocker binding the pore region (DHYNCVSSGGQCLYSACPIFTKIQGTCYRGKAKCCK; ends and bridges not checked; cysteine pairing not given here; UniProt P60022 33-68, looked up)
- IC50 (Kv1.3): 11800 nM

Substance: human β-defensin 2 [hBD2]
- IC50 (Kv1.3): 0.022 nM
